Test system: Histiocytoma U937 cells
Assay: Spontaneous and maximum release of labeled compound, time-resolved fluorometric assay (Eu assay)
Assay type: cell-based
Conditions: for maximum release (B) / spontaneous release (A): U937 cells labeled with 25 μM compound for 15 min; for maximum release (B): lysed with 0.125% digitonin in 19% DMSO, time-resolved fluorescence with europium solution; for spontaneous release (A): supernatant added to europium solution, time-resolved fluorescence, wells without digitonin; for spontaneous release (%) (C) (100 × A/B): U937 cells, 25 μM compound, ratio of spontaneous to maximum release
Protocol: Histiocytoma U937 cells were cultured in 30 mL of RPMI1640 medium under the conditions of 37° C., 5% CO2 overnight, the culture medium (30 mL) was placed in a 50 mL conical tube, and the cell number was counted. After centrifugation at 1700 rpm at 4° C. for 5 min, the supernatant was removed, and the cell pellets were resuspended in RPMI1640 medium at 1×10^6 cells/mL. To the cell suspension (1 mL) in a 15 mL conical tube was added 2.5 μL of a compound represented by the formula (I) or a salt thereof (10 mM stock solution) (final concentration: 25 μM), and the mixture was incubated under the conditions of 37° C., 5% CO2 for 15 min. The cells were washed 3 times with 5 mL of RPMI1640 medium, and resuspended in 5 mL of RPMI1640 medium. The cell suspension (2 mL) was placed in a 15 mL conical tube containing 6 mL of RPMI1640 medium to adjust the cell concentration to 5×10^3 cells/100 μL. The cell suspension (100 μL) was seeded in 6 wells of a 96 flat bottom plate. 100 μL of RPMI1640 medium was added to wells for determining the amount of spontaneous release, and 90 μL of RPMI1640 medium was added to wells for determining the amount of maximum release. The plates were centrifuged at 500 rpm, room temperature for 2 min and incubated under 37° C., 5% CO2 condition for 30 min. A newly-prepared 0.125% digitonin solution in 19% DMSO (mixed solution of 3 mg digitonin, 0.456 mL DMSO and 1.944 mL H2O) (10 μL) was added to the aforementioned wells for determining the amount of maximum release, mixed well and further incubated for 30 min. After incubation, the cell suspension was mixed well again, and centrifuged at 1700 rpm, room temperature for 2 min. After the centrifugation, the supernatant (25 μL) was carefully transferred into wells containing 250 μL of europium solution in a 96 flat bottom plate, and 200 μL of the solution thereof was placed in a 96-well flat bottom plate.
The plate was allowed to stand for 15 min, and the time-resolved fluorescence was measured by ARVO multiplate reader.

Row | Compound | maximum release (B) | spontaneous release (A) | spontaneous release (%) (C) (100 × A/B)
1 | CC(=O)OCOC(=O)c1cccc(-c2cccc(-c3cccc(C(=O)OCOC(C)=O)n3)n2)n1 [BATDA, bis(acetoxymethyl) 2,2′:6′,2″-terpyridine-6,6″-dicarboxylate, reference compound] | 86785 | 14795 | 17%
2 | CCCNC(=O)COc1cc(-c2cccc(C(=O)OCOC(C)=O)n2)nc(-c2cccc(C(=O)OCOC(C)=O)n2)c1 [Example 2, bis(acetoxymethyl) 4′-(2-oxo-2-(propylamino)ethoxy)-2,2′:6′,2″-terpyridine-6,6″-dicarboxylate] | 60521 | 7085 | 11.7%
3 | CCC(=O)OCOC(=O)c1cccc(-c2cc(OCCO)cc(-c3cccc(C(=O)OCOC(=O)CC)n3)n2)n1 [Example 5, bis(propionyloxymethyl) 4′-(2-hydroxyethoxy)-2,2′:6′,2″-terpyridine-6,6″-dicarboxylate] | 78831 | 6991 | 8.9%
4 | CC(=O)OCOC(=O)c1cccc(-c2cc(OCCO)cc(-c3cccc(C(=O)OCOC(C)=O)n3)n2)n1 [Example 3, bis(acetoxymethyl) 4′-(2-hydroxyethoxy)-2,2′:6′,2″-terpyridine-6,6″-dicarboxylate] | 69372 | 4890 | 7%
5 | CCCC(=O)OCOC(=O)c1cccc(-c2cc(OCCCO)cc(-c3cccc(C(=O)OCOC(=O)CCC)n3)n2)n1 [Example 6, bis(butyryloxymethyl) 4′-(3-hydroxypropoxy)-2,2′:6′,2″-terpyridine-6,6″-dicarboxylate] | 103235 | 9538 | 9.2%
6 | CCCC(=O)OCOC(=O)c1cccc(-c2cc(OCCOCCO)cc(-c3cccc(C(=O)OCOC(=O)CCC)n3)n2)n1 [Example 7, bis(butyryloxymethyl) 4′-(2-(2-hydroxyethoxy)ethoxy)-2,2′:6′,2″-terpyridine-6,6″-dicarboxylate] | 63594 | 6133 | 9.6%
7 | CCCC(=O)OCOC(=O)c1cccc(-c2cc(OCCO)cc(-c3cccc(C(=O)OCOC(=O)CCC)n3)n2)n1 [Example 1, bis(butyryloxymethyl) 4′-(2-hydroxyethoxy)-2,2′:6′,2″-terpyridine-6,6″-dicarboxylate] | 65576 | 6347 | 9.7%
8 | CCCC(=O)OCOC(=O)c1cccc(-c2cc(OCC=O)cc(-c3cccc(C(=O)OCOC(=O)CCC)n3)n2)n1 [Example 4, bis(butyryloxymethyl) 4′-(2-oxyethoxy)-2,2′:6′,2″-terpyridine-6,6″-dicarboxylate] | 43224 | 3590 | 8.3%
9 | CC(=O)OCOC(=O)c1cccc(-c2cc(CO)cc(-c3cccc(C(=O)OCOC(C)=O)n3)n2)n1 [Example 9, bis(acetoxymethyl) 4′-(hydroxymethyl)-2,2′:6′,2″-terpyridine-6,6″-dicarboxylate] | 127955 | 21343 | 16.7%
